Source: patent US7772383B2, “Chemical PCR: Compositions for enhancing polynucleotide amplification reactions” (The Trustees of Princeton University, priority 2002, dated 2010)

Test system: bovine brain glycolipid transfer protein (GTP) cDNA (660 bp)
Experiment: PCR amplification of GTP with lower denaturation/extension temperatures
Format: biochemical
Settings: for Potency: annealing 55° C., normalized: 1,5-pentanediol (95/72° C.) = 1; for Effective: concentration interval over which target band minus control is at least 50% of maximum volume
Experimental: Amplification reactions were carried out under the following general conditions. Those skilled in the art will appreciate, however, that to the extent that the conditions (set forth in this application) required for specific experiments described in this example were inconsistent with the following general conditions, limited exceptions to the following general conditions were made The general conditions were as follows: 10 Mm Tris-HCl (Ph 8.8), 50 Mm KCl, 1.5 Mm MgCl2, 0.01% (w/v) gelatin, 0.2 Um primers, 0.06 ng/ul template, 0.2 Mm each Dntp, 0.04 U/ul Taq polymerase. The templates used were bovine brain N-WASP cDNA (1518 bp), a 996 by segment of human myeloid leukocyte c-jun cDNA, a 511 by segment of human prostate-specific membrane antigen (PSM) cDNA, and bovine brain glycolipid transfer protein (GTP) cDNA (660 bp). cDNA synthesis was carried out using the FIRST-STRAND® RT-PCR kit from Stratagene on the respective mRNAs purchased from Clontech. All amplification reactions for gene were carried out using a single master batch of cDNA. Taq polymerase and dNTPs were obtained from Stratagene. Primers were obtained from Genosys. Primer melting temperatures (Tms) were calculated using the Genosys oligo calculator program. The sequences of the primers were as follows.
Polymerase chain reactions for the N-WASP gene were conducted on a ROBOCYCLER® Gradient 40 thermal cycler from Stratagene using 100 ul solutions in 600 ul thin-walled tubes. For expediency, amplification of c-jun, PSM and GTP was carried out in a ROBOCYCLER® Gradient 96 thermal cycler from Stratagene using 50 ul solutions in 200 ul thin-walled tubes. Prior to Taq polymerase addition, a hotstart protocol was carried out that consisted of an initial cycle of 95° C. for 5 minutes (11) to ensure complete first-strand separation, followed by a cycle of 54° C. for 5 minutes. Amplifications were run for 30 cycles. Denaturation was done for 1 minute at the minimum temperatures that yielded discernable amplification: 92° C. for N-WASP and 95° C. for c-jun, PSM and GTP. Extension was done at 72° C. for periods depending on target length: 2 minutes for N-WASP, 1.5 minutes for c-jun and GTP, and 1 minute for PSM. Annealings were carried out either at fixed concentrations of additives using temperature gradients of 38-56° C. for N-WASP and 44-58° C. for the other targets, or at varying concentrations of additives using fixed temperatures of 41° C. for N-WASP, 50° C. for c-jun and PSM, and 54° C. for GTP.
Amplification products were analyzed by agarose gel electrophoresis on 0.8% agarose gels in which 20 ul reaction products were loaded with 4 ul loading buffer. Gels were stained with ethidium bromide, visualized on a UV transilluminator (Fisher), and documented by photography. Densitometric quantitation of amplification products was carried out using IMAGE SCANNER® and IMAGE MASTER® software from Amersham Pharmacia. Background correction was done using the software's rolling disc method.
Two phases of investigations were carried out into the use of 62° C. extension temperature in PCR reactions. The first involved concentration gradients with 1,2-butanediol and 1,5-pentanediol employing 62° C. extension and 95° C. denaturation. The first template used was GTP. A larger range of concentrations was employed than usual in the experiments due to the anticipated increase in effective range. These concentrations were: 0.1, 0.31, 0.5, 0.6, 0.8, 0.9 and 1.1M for 1,2-butanediol and 0.01, 0.2, 0.3, 0.4, 0.5, 0.7 and 1.0M for 1,5-pentanediol. The second phase of investigation involved experiments in which the denaturation temperature was lowered to 92° C. The following concentrations were tested: 1,2-butanediol—0.1, 0.3, 0.5, 0.6, 0.7, 0.9, 1.1, 1.3, and 1.4M; 1,5-pentanediol: 0.1, 0.2, 0.3, 0.4, 0.5, 0.7, 1.0, and 1.4M. 1,2-butanediol was also tested with the more GC-rich template c-jun. The following concentrations were tested: 0.1, 0.3, 0.5, 0.7, 0.9, 1.1, 1.4M.

[1] = 92/62° C. denaturation/extension
[2] = 95/62° C. denaturation/extension

Row | Compound | Potency [1] | Effective (92/62° C.) | cutoff concentration (92° C. denaturation, 62° C. extension) [M] | Potency [2] | Effective (95/62° C.)
1 | OCCCCCO [1,5-Pentanediol] | 1.97 | 0.29-0.90 | 1.0 | 1.49 | 0.15-0.63
2 | CCC(O)CO (stereo not drawn) [1,2-Butanediol] | 1.50 | 0.50-1.27 | – | 0.88 | 0.10-0.82
